These results are taken from PubChem BioAssay (NCI).

Holding throughout (experiment): NCI anticancer screen, dose series, 48 h
Test [1] has as its system NCI-H23 lung.
Test [2] deals with SN12C renal.
Test [3] has as its system OVCAR-4 ovarian.
Test [4] relates to NCI-H226 lung.
Test [5] deals with OVCAR-5 ovarian.
Test [6] has as its system HCC-2998 colon.
Test [7] deals with MDA-MB-435.
The subject of test [8] is SR leukemia.
Test [9] concerns COLO 205 colon.
Test [10] relates to CAKI-1 renal.
Test [11] has as its system DU-145 prostate.

SMILES strings stand for the structures.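 Five compound concentrations were applied to cells in 96-well plates for 48 hours; endpoints were derived by simple linear interpolation of the resulting dose-response curve. TGI is the concentration that stops growth completely.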

Take `NC(CC(O)(c1ccccc1)c1ccccc1)c1ccccc1S` (configuration not stated): the TGI was determined as 37.7 µM in [1]; 44.1 µM in test [2]; 29.7 µM in test [3]; 29.8 µM in [4]; 31.7 µM in test [5]; 50 µM in test [6]. For the same compound, the TGI was 28 µM in test [7], over 100 µM in test [8] and 32 µM in [9].

On to `O=C(CSc1nnc(-c2ccc(N=Cc3ccc(Cl)cc3)cc2)o1)Nc1ccc([N+](=O)[O-])cc1`, for which the TGI in [1] is 38.1 µM; in test [2], 37.7 µM; in test [3] it was 84.9 µM; in test [4] it was 48.6 µM; in test [8], 48.7 µM; in test [9], over 100 µM.

In the case of `COc1cccc(-c2nccc3c(OCc4ccccc4)c(OC)c(OC)cc23)c1`, the TGI in [1], in test [2], in test [4], in test [5], in [6] and in test [8] was over 100 µM throughout. Also, the TGI in test [9] is over 100 µM.

In the case of `CCCCn1c2ccccc2c2ccc3c(c21)C(=O)C=CC3=O`, the TGI in test [1], in [2], in test [3], in [4], in test [5] and in [10] was over 100 µM in each case. In addition, the TGI in [6], in test [8] and in [9] was over 100 µM each time.

As for `Cn1ccnc1CCc1ccc(Cl)c(Cl)c1`, the TGI in [1], in [2], in test [3], in test [4], in test [5] and in test [10] was over 100 µM in each case. Further, the TGI in [8] and in test [9] was over 100 µM in each case.

As for `CN[C@@H](C)[C@@H](O)c1ccccc1`, the TGI in test [1], in [2], in [3], in [4], in [5] and in [11] was over 100 µM each time. The TGI in test [10], in test [6], in [7] and in [9] was over 100 µM in each case.

As to `CN(Cc1cnc2nc(N)nc(N)c2n1)c1ccc(C(=O)NC(CCC(=O)NC(CC(P(=O)(O)O)P(=O)(O)O)C(=O)O)C(=O)O)cc1` (configuration not stated), the TGI in [1], in test [2], in test [3], in test [4], in test [5] and in test [11] was over 100 µM throughout. In addition, the TGI in test [7], in [8] and in [9] was over 100 µM in each case.

Regarding `COC([C@@H](OC(=O)c1ccccc1)[C@H](OC(=O)c1ccccc1)C(O)COC(=O)c1ccccc1)n1cc(C)c(=O)[nH]c1=O` (some centres not stated), the TGI in [1] was over 100 µM; in test [2], over 100 µM; in test [3] it was 82.4 µM; in test [4], 74.5 µM; in [5], 62.6 µM; in test [11] it was over 100 µM. In addition, the TGI is over 100 µM in test [7], over 100 µM in [8] and 51.9 µM in [9].

Take `N[C@H](CCC(=O)NCP(=O)(O)O)C(=O)O`: the TGI in [1], in [2], in test [5], in [6], in test [7] and in test [8] was over 100 µM in each case. In addition, the TGI in test [9] is over 100 µM.

As to `Cc1c(-c2nnc(-c3ccccc3)o2)c(=O)n(-c2ccccc2)n1C`, the TGI in test [1], in test [2], in test [3], in [4], in test [6] and in [8] was over 100 µM each time. The TGI in [9] was over 100 µM.

In the case of `CN(C)c1ccc(/C=C/C(=O)O)cc1`, the TGI in test [2], in test [4], in [5], in [10], in [6] and in test [9] was over 100 µM each time.

In the case of `CC(=O)Oc1cc(OC(C)=O)c2c(C)cc(=O)oc2c1`, the TGI in test [1], in [2], in test [3], in [4], in test [5] and in [11] was over 100 µM in each case. Also, the TGI in [7], in test [8] and in [9] was over 100 µM throughout.

As for `O=C(O)CCc1ccc2c(c1)CC1(Cc3ccccc3C1)C2`, the TGI in [1], in test [2], in test [3], in [4], in test [5] and in test [6] was over 100 µM each time. Further, the TGI in [7], in test [8] and in test [9] was over 100 µM each time.

Take `O=C(c1ccc(O)c([N+](=O)[O-])c1)c1ccc(O)c([N+](=O)[O-])c1`: the TGI in test [1], in test [2], in test [3], in test [4], in test [5] and in [11] was over 100 µM throughout. The TGI was over 100 µM in test [10], over 100 µM in test [6], 70.1 µM in test [7] and over 100 µM in test [9].

As to `COc1ccc2c(c1)c1nn(CCN3CCCCC3)c3ccc4c(=O)n(CCN(C)C)c(=O)n2c4c13`, the TGI in [1] is 0.627 µM; in test [2], 0.0984 µM; in [3], 0.0158 µM; in test [4] it was 0.243 µM; in [5], 0.126 µM; in test [11], 0.132 µM. Also, the TGI in test [10] was found to be 0.375 µM; in [6], 0.03 µM; in test [7] it was 0.088 µM.

Consider `CCOC(=O)C(=O)CC(=O)C1=C(c2ccccc2OC)CC(c2cccs2)=CC1=O`, for which the TGI in [1], in test [2], in [4], in [5], in [11] and in [10] was over 100 µM in each case. Besides, the TGI in test [7] and in test [9] was over 100 µM in each case.
